Numbers after ± are expanded uncertainties.
Conditions: for mass density: Fluid (supercritical or subcritical phases), Vibrating tube method

C/C=C/C [(E)-2-butene]
Conditions	Critical density [kg/m3]	mass density [kg/m3]
453.25 K, 34989 kPa	–	504.85 ± 1.3
453.25 K, 39997 kPa	–	515.79 ± 1.4
458.25 K, 5018 kPa	–	143.71 ± 0.66
458.25 K, 15001 kPa	–	424.61 ± 0.95
458.25 K, 20004 kPa	–	451.96 ± 1.1
458.25 K, 24994 kPa	–	471.69 ± 1.1
458.25 K, 30004 kPa	–	487.34 ± 1.2
458.25 K, 34994 kPa	–	500.33 ± 1.3
458.25 K, 40004 kPa	–	511.57 ± 1.4
458.26 K, 9992 kPa	–	376.95 ± 0.89
463.25 K, 5019 kPa	–	132.86 ± 0.64
463.25 K, 9998 kPa	–	364.93 ± 0.87
463.25 K, 14997 kPa	–	416.89 ± 0.94
463.25 K, 20001 kPa	–	445.66 ± 1
463.25 K, 24994 kPa	–	466.25 ± 1.1
463.25 K, 29992 kPa	–	482.44 ± 1.2
463.25 K, 34997 kPa	–	495.87 ± 1.3
463.25 K, 39985 kPa	–	507.37 ± 1.4
468.25 K, 5019 kPa	–	124.67 ± 0.62
468.25 K, 14984 kPa	–	408.44 ± 0.92
468.25 K, 19991 kPa	–	439.31 ± 1
468.25 K, 24990 kPa	–	460.78 ± 1.1
468.25 K, 29991 kPa	–	477.55 ± 1.2
468.25 K, 34993 kPa	–	491.38 ± 1.3
468.25 K, 39991 kPa	–	503.2 ± 1.4
468.26 K, 9993 kPa	–	352.22 ± 0.85
473.25 K, 5018 kPa	–	118.06 ± 0.6
473.25 K, 9998 kPa	–	339.4 ± 0.83
473.25 K, 15002 kPa	–	400.67 ± 0.91
473.25 K, 19991 kPa	–	432.96 ± 1
473.25 K, 24985 kPa	–	455.31 ± 1.1
473.25 K, 29991 kPa	–	472.65 ± 1.2
473.25 K, 35002 kPa	–	486.9 ± 1.3
473.25 K, 39993 kPa	–	499.03 ± 1.4
478.25 K, 5018 kPa	–	112.62 ± 0.57
478.25 K, 9993 kPa	–	326 ± 0.8
478.25 K, 14989 kPa	–	392.47 ± 0.89
478.25 K, 19985 kPa	–	426.52 ± 0.99
478.25 K, 25003 kPa	–	449.85 ± 1.1
478.25 K, 29992 kPa	–	467.75 ± 1.2
478.25 K, 35005 kPa	–	482.42 ± 1.3
478.25 K, 40012 kPa	–	494.85 ± 1.4
483.25 K, 5018 kPa	–	107.95 ± 0.55
483.25 K, 9988 kPa	–	312.49 ± 0.77
483.25 K, 14996 kPa	–	384.28 ± 0.88
483.25 K, 19982 kPa	–	420.06 ± 0.98
483.25 K, 25007 kPa	–	444.4 ± 1.1
483.25 K, 29987 kPa	–	462.83 ± 1.2
483.25 K, 35000 kPa	–	477.93 ± 1.2
483.25 K, 39990 kPa	–	490.66 ± 1.3
488.25 K, 5018 kPa	–	103.9 ± 0.53
488.25 K, 9985 kPa	–	299.1 ± 0.75
488.25 K, 14997 kPa	–	376.01 ± 0.86
488.25 K, 20002 kPa	–	413.74 ± 0.97
488.25 K, 25005 kPa	–	438.9 ± 1.1
488.25 K, 29988 kPa	–	457.94 ± 1.1
488.25 K, 34992 kPa	–	473.43 ± 1.2
488.25 K, 40013 kPa	–	486.57 ± 1.3
493.25 K, 5018 kPa	–	100.36 ± 0.5
493.25 K, 9986 kPa	–	285.99 ± 0.72
493.25 K, 14990 kPa	–	367.61 ± 0.85
493.25 K, 20001 kPa	–	407.28 ± 0.95
493.25 K, 25006 kPa	–	433.4 ± 1.1
493.25 K, 29986 kPa	–	453.04 ± 1.1
493.25 K, 35005 kPa	–	469.02 ± 1.2
493.25 K, 39997 kPa	–	482.38 ± 1.3
498.25 K, 5018 kPa	–	97.2 ± 0.48
498.25 K, 9992 kPa	–	273.51 ± 0.7
498.25 K, 14982 kPa	–	359.21 ± 0.83
498.25 K, 19993 kPa	–	400.8 ± 0.94
498.25 K, 25004 kPa	–	427.91 ± 1
498.25 K, 29983 kPa	–	448.16 ± 1.1
498.25 K, 35000 kPa	–	464.56 ± 1.2
498.25 K, 39994 kPa	–	478.26 ± 1.3
503.25 K, 5019 kPa	–	94.38 ± 0.46
503.25 K, 9995 kPa	–	261.54 ± 0.67
503.25 K, 14996 kPa	–	351.04 ± 0.82
503.25 K, 19991 kPa	–	394.38 ± 0.93
503.25 K, 25000 kPa	–	422.42 ± 1
503.25 K, 30008 kPa	–	443.38 ± 1.1
503.25 K, 35007 kPa	–	460.15 ± 1.2
503.25 K, 39992 kPa	–	474.14 ± 1.3
508.25 K, 5017 kPa	–	91.73 ± 0.44
508.25 K, 9986 kPa	–	249.99 ± 0.64
508.25 K, 14991 kPa	–	342.7 ± 0.8
508.25 K, 19987 kPa	–	387.81 ± 0.92
508.25 K, 24998 kPa	–	416.93 ± 1
508.25 K, 30007 kPa	–	438.53 ± 1.1
508.25 K, 34991 kPa	–	455.68 ± 1.2
508.25 K, 39996 kPa	–	470.06 ± 1.3
513.25 K, 5019 kPa	–	89.39 ± 0.42
513.25 K, 9982 kPa	–	239.32 ± 0.62
513.25 K, 14985 kPa	–	334.4 ± 0.79
513.25 K, 19985 kPa	–	381.11 ± 0.9
513.25 K, 24987 kPa	–	411.43 ± 1
513.25 K, 29999 kPa	–	433.67 ± 1.1
513.25 K, 34992 kPa	–	451.29 ± 1.2
513.25 K, 39993 kPa	–	465.98 ± 1.3
518.24 K, 30001 kPa	–	428.87 ± 1.1
518.24 K, 35000 kPa	–	446.94 ± 1.2
518.25 K, 5016 kPa	–	87.15 ± 0.4
518.25 K, 9990 kPa	–	229.8 ± 0.6
518.25 K, 14984 kPa	–	326.26 ± 0.77
518.25 K, 20002 kPa	–	374.92 ± 0.89
518.25 K, 24995 kPa	–	406.05 ± 1
518.25 K, 39988 kPa	–	461.92 ± 1.3
523.24 K, 24994 kPa	–	400.62 ± 0.99
523.24 K, 39996 kPa	–	457.91 ± 1.3
523.25 K, 5016 kPa	–	85.12 ± 0.39
523.25 K, 9982 kPa	–	220.69 ± 0.63
523.25 K, 14998 kPa	–	318.44 ± 0.8
523.25 K, 20000 kPa	–	368.56 ± 0.89
523.25 K, 29990 kPa	–	424.03 ± 1.1
523.25 K, 34989 kPa	–	442.55 ± 1.2
Liquid, visual observation in a variable volume cell:FP	236.4 ± 4.7	–

Liquid
Conditions	Critical pressure [kPa]	Critical temperature [K]
–	4027.3 ± 11	428.61 ± 0.11

Reference: the NIST ThermoML archive (doi:10.1016/j.fluid.2004.09.013)
